Tests used:
[1] = molecular target: T1, recombinant human Lp-PLA2 (Homo sapiens, UniProt Q13093); experiment: (1a) PED6 assay, recombinant human Lp-PLA2 (rhLp-PLA2); format: biochemical; conditions: Examples 1-167 and 413-430 were tested here, one experiment or average of multiple experiments, read-out: rhLp-PLA2 (pIC50) (converted)
T1 sequence (Q13093 22-441): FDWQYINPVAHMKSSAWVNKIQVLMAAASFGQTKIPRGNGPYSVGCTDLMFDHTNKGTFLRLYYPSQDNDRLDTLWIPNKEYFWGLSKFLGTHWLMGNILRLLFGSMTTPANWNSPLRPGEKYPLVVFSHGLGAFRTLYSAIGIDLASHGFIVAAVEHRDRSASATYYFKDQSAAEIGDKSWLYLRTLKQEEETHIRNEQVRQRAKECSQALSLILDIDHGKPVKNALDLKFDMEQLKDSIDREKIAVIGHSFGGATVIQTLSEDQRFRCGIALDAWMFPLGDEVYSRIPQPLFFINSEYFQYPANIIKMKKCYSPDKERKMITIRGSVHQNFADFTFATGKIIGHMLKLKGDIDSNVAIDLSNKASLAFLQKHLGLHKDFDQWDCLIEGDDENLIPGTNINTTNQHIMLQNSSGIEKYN
Outline: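 PED6 (2 μM final after 1:1 addition of 4 μM stock) cleavage by rhLp-PLA2 (4 nM working solution) in 50 mM HEPES pH 7.4, 150 mM NaCl, 1 mM CHAPS; compounds preincubated with enzyme 30 minutes, reaction 20 min at room temperature. Fluorescence at ex 480/em 540; pIC50 from curve fit.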

Lp-PLA2 in human plasma = molecular target: T2, Lp-PLA2 in human plasma (Homo sapiens, UniProt Q13093); experiment: (3a) Lp-PLA2 human plasma Thio-PAF assay; format: biochemical; conditions: (3a) Thio-PAF assay, pooled human plasma; Examples 1-265 and 413-430 were tested here; read-out: pIC50 in the Lp-PLA2 human plasma assay (converted)
T2 construct: from tissue; host or cells: pooled human plasma
T2 sequence (Q13093 22-441): T1 sequence (Q13093 22-441)
Outline: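 Pooled human plasma preincubated 30 min with serially diluted compound, then given 2-thio-PAF substrate with CPM and NEM in 50 mM HEPES pH 7.4, 150 mM NaCl, 1 mM CHAPS. Reaction quenched with TFA after 2 min; CPM thiol-adduct fluorescence read at ex 380/em 485 after 40 min; pIC50 reported.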

SMILES | IC50 [1] [nM] | IC50 (Lp-PLA2 in human plasma) [nM]
N#Cc1cc(Oc2ccc(COc3cc4n(c(=O)n3)CC3CCCCN43)cc2F)cc(C(F)(F)F)c1 (stereo not shown) [Example E28, 3-(2-Fluoro-4-(((1-oxo-6,7,8,9,9a,10-hexahydro-1H-pyrido[1′,2′:3,4]imidazo[1,2-c]pyrimidin-3-yl)oxy)methyl)phenoxy)-5-(trifluoromethyl)benzonitrile] | ≤ 1 | ≤ 100
O=c1nc(OCc2cc(F)cc(Cl)c2)cc2n1CC1CCCCN21 (stereo not shown) [Example E29, 3-((3-Chloro-5-fluorobenzyl)oxy)-6,7,8,9,9a,10-hexahydro-1H-pyrido[1′,2′:3,4]imidazo[1,2-c]pyrimidin-1-one] | ≤ 100 | ≤ 10000
O=c1nc(OCc2ccc(F)c(F)c2)cc2n1C[C@H]1CCCCN21 [Example E30, (R)-3-((3,4-Difluorobenzyl)oxy)-6,7,8,9,9a,10-hexahydro-1H-pyrido[1′,2′:3,4]imidazo[1,2-c]pyrimidin-1-one] | ≤ 100 | ≤ 100
O=c1nc(OCc2ccc(F)c(F)c2)cc2n1C[C@@H]1CCCCN21 [Example E31, (S)-3-((3,4-Difluorobenzyl)oxy)-6,7,8,9,9a,10-hexahydro-1H-pyrido[1′,2′:3,4]imidazo[1,2-c]pyrimidin-1-one] | ≤ 100 | ≤ 10000
O=c1nc(OCc2cc(F)c(F)c(F)c2)cc2n1C[C@@H]1CCCCN21 [Example E32, (S)-3-((3,4,5-Trifluorobenzyl)oxy)-6,7,8,9,9a,10-hexahydro-1H-pyrido[1′,2′:3,4]imidazo[1,2-c]pyrimidin-1-one] | ≤ 100 | ≤ 10000
N#Cc1cccc(COc2cc3n(c(=O)n2)C[C@@H]2CCCCN32)c1 [Example E33, (S)-3-(((1-Oxo-6,7,8,9,9a,10-hexahydro-1H-pyrido[1′,2′:3,4]imidazo[1,2-c]pyrimidin-3-yl)oxy)methyl)benzonitrile] | ≤ 100 | ≤ 10000
O=c1nc(OCc2ccc(F)cc2)cc2n1C[C@@H]1CCCCN21 [Example E34, (S)-3-((4-Fluorobenzyl)oxy)-6,7,8,9,9a,10-hexahydro-1H-pyrido[1′,2′:3,4]imidazo-[1,2-c] pyrimidin-1-one] | ≤ 100 | ≤ 10000
O=c1nc(OCc2cc(F)cc(F)c2)cc2n1C[C@@H]1CCCCN21 [Example E35, (S)-3-((3,5-Difluorobenzyl)oxy)-6,7,8,9,9a,10-hexahydro-1H-pyrido[1′,2′:3,4]imidazo[1,2-c]pyrimidin-1-one] | ≤ 100 | ≤ 10000
O=c1nc(OCCc2cccs2)cc2n1C[C@@H]1CCCCN21 [Example E36, (S)-3-(2-(Thiophen-2-yl)ethoxy)-6,7,8,9,9a,10-hexahydro-1H-pyrido[1′,2′:3,4]imidazo[1,2-c]pyrimidin-1-one] | ≤ 100 | ≤ 10000
O=c1nc(OCc2cc(F)c(Oc3ccnc(C(F)(F)F)c3)c(F)c2)cc2n1CC1CCCCN21 (stereo not shown) [Example E37, 3-((3,5-difluoro-4-((2-(trifluoromethyl)pyridin-4-yl)oxy)benzyl)oxy)-6,7,8,9,9a,10-hexahydro-1H-pyrido[1′,2′:3,4]imidazo[1,2-c]pyrimidin-1-one] | ≤ 1 | ≤ 100
O=c1nc(OCc2ccc(Oc3ccc(C(F)(F)F)nc3)c(F)c2)cc2n1CC1CCCCN21 (stereo not shown) [Example E38, 3-((3-Fluoro-4-((6-(trifluoromethyl)pyridin-3-yl)oxy)benzyl)oxy)-6,7,8,9,9a,10-hexahydro-1H-pyrido[1′,2′:3,4]imidazo[1,2-c]pyrimidin-1-one] | ≤ 1 | ≤ 100
O=c1nc(OCc2cc(F)c(Oc3ccc(C(F)(F)F)nc3)c(F)c2)cc2n1CC1CCCCN21 (stereo not shown) [Example E39, 3-((3,5-Difluoro-4-((6-(trifluoromethyl)pyridin-3-yl)oxy)benzyl)oxy)-6,7,8,9,9a,10-hexahydro 1H-pyrido[1′,2′:3,4]imidazo[1,2-c]pyrimidin-1-one] | ≤ 1 | ≤ 100
O=c1nc(OCc2ccc(Oc3ccnc(C(F)(F)F)c3)c(F)c2)cc2n1C[C@@H]1CCCCN21 [Example E40, (S)-3-((3-Fluoro-4-((2-(trifluoromethyl)pyridin-4-yl)oxy)benzyl)oxy)-6,7,8,9,9a,10-hexahydro-1H-pyrido[1′,2′:3,4]imidazo[1,2-c]pyrimidin-1-one] | ≤ 1 | ≤ 100
O=c1nc(OCc2cc(F)c(Oc3ccnc(C(F)(F)F)c3)c(F)c2)cc2n1CC1CCCCN21 (stereo not shown) [Example E41] | ≤ 1 | ≤ 100
O=c1nc(OCc2ccc(Oc3cncc(C(F)(F)F)c3)c(F)c2)cc2n1C[C@@H]1CCCCN21 [Example E42, (S)-3-((3-fluoro-4-((5-(trifluoromethyl)pyridin-3-yl)oxy)benzyl)oxy)-6,7,8,9,9a,10-hexahydro-1H-pyrido[1′,2′:3,4]imidazo[1,2-c]pyrimidin-1-one] | ≤ 1 | ≤ 100
O=c1nc(OCc2ccc(Oc3cnc(C(F)(F)F)nc3)c(F)c2)cc2n1CC1CCCCN21 (stereo not shown) [Example E43, 3-((3-fluoro-4-((2-(trifluoromethyl)pyrimidin-5-yl)oxy)benzyl)oxy)-6,7,8,9,9a,10-hexahydro-1H-pyrido[1′,2′:3,4]imidazo[1,2-c]pyrimidin-1-one] | ≤ 100 | ≤ 100
O=c1nc(OCc2ccc(Oc3ccnc(C(F)(F)F)c3)c(F)c2)cc2n1CC1CCCCN21 (stereo not shown) [Example E44, 3-((3-Fluoro-4-((2-(trifluoromethyl)pyridin-4-yl)oxy)benzyl)oxy)-6,7,8,9,9a,10-hexahydro-1H-pyrido[1′,2′:3,4]imidazo[1,2-c]pyrimidin-1-one] | ≤ 1 | ≤ 100
O=c1nc(OCc2cc(F)c(Oc3ccnc(C(F)(F)F)c3)c(F)c2)cc2n1CC1CCCCN21 (stereo not shown) [Example E45, 3-((3,5-Difluoro-4-((2-(trifluoromethyl)pyridin-4-yl)oxy)benzyl)oxy)-6,7,8,9,9a,10-hexahydro-1H-pyrido[1′,2′:3,4]imidazo[1,2-c]pyrimidin-1-one] | ≤ 1 | ≤ 100
O=c1nc(OCc2ccc(Oc3cnc(C(F)(F)F)nc3)c(F)c2)cc2n1CC1CCCCN21 (stereo not shown) [Example E46, 3-((3-Fluoro-4-((2-(trifluoromethyl)pyrimidin-5-yl)oxy)benzyl)oxy)-6,7,8,9,9a,10-hexahydro-1H-pyrido[1′,2′:3,4]imidazo[1,2-c]pyrimidin-1-one] | ≤ 1 | ≤ 100
O=c1nc(OCc2ccc(Oc3cncc(C(F)(F)F)c3)c(F)c2)cc2n1CC1CCCCN21 (stereo not shown) [Example E47, 3-((3-Fluoro-4-((5-(trifluoromethyl)pyridin-3-yl)oxy)benzyl)oxy)-6,7,8,9,9a,10-hexahydro-1H-pyrido[1′,2′:3,4]imidazo[1,2-c]pyrimidin-1-one] | ≤ 1 | ≤ 100
O=c1nc(OCc2ccc(Oc3ccc(C(F)(F)F)nc3)c(F)c2)cc2n1CC1CCCCN21 (stereo not shown) [Example E48, 3-((3-Fluoro-4-((6-(trifluoromethyl)pyridin-3-yl)oxy)benzyl)oxy)-6,7,8,9,9a,10-hexahydro-1H-pyrido[1′,2′:3,4]imidazo[1,2-c]pyrimidin-1-one] | ≤ 1 | ≤ 10000
O=c1nc(OCc2cc(F)c(Oc3ccc(C(F)(F)F)nc3)c(F)c2)cc2n1CC1CCCCN21 (stereo not shown) [Example E49, 3-((3,5-difluoro-4-((6-(trifluoromethyl)pyridin-3-yl)oxy)benzyl)oxy)-6,7,8,9,9a,10-hexahydro-1H-pyrido[1′,2′:3,4]imidazo[1,2-c]pyrimidin-1-one] | ≤ 1 | ≤ 100
Cn1cc(Oc2c(F)cc(COc3cc4n(c(=O)n3)C[C@@H]3CCCCN43)cc2F)cn1 [Example E50, (S)-3-((3,5-difluoro-4-((1-methyl-1H-pyrazol-4-yl)oxy)benzyl)oxy)-6,7,8,9,9a,10-hexahydro-1H-pyrido[1′,2′:3,4]imidazo[1,2-c]pyrimidin-1-one] | ≤ 100 | ≤ 10000
Cn1cc(Oc2ccc(COc3cc4n(c(=O)n3)C[C@@H]3CCCCN43)cc2F)cn1 [Example E51, (S)-3-((3-fluoro-4-((1-methyl-1H-pyrazol-4-yl)oxy)benzyl)oxy)-6,7,8,9,9a,10-hexahydro-1H-pyrido[1,2′:3,4]imidazo[1,2-c]pyrimidin-1-one] | ≤ 100 | ≤ 10000
O=c1nc(OCc2cccc(F)c2)cc2n1C[C@H]1CCCCN21 [Example E52, (R)-3-((3-Fluorobenzyl)oxy)-6,7,8,9,9a,10-hexahydro-1H-pyrido[1′,2′:3,4]imidazo[1,2-c] pyrimidin-1-one] | ≤ 100 | ≤ 100
O=c1nc(OCc2cc(F)cc(F)c2)cc2n1C[C@H]1CCCCN21 [Example E53, (R)-3-((3,5-Difluorobenzyl)oxy)-6,7,8,9,9a,10-hexahydro-1H-pyrido[1′,2′:3,4]imidazo[1,2-c] pyrimidin-1-one] | ≤ 100 | ≤ 10000

— patent US11999746B2, “Compounds” (GlaxoSmithKline Intellectual Property Development Limited, priority 2014, dated 2024)
